Active and inactive are the calls of the source. No cut-off for these calls is given here.
What was measured:
Homo sapiens [1] = organism: Homo sapiens; experiment: Binding affinity to DAP DNA (unknown origin) assessed as stabilization of DNA by measuring change in melting temperature at 1 uM by FRET analysis
DNA = experiment: Binding affinity to double strand DNA (unknown origin) assessed as stabilization of DNA by measuring change in melting temperature at 1 uM by FRET analysis; format: nucleic-acid assay; settings: Homo sapiens
HeLa = experiment: cells; settings: Homo sapiens, 72 h
Description: Antiproliferative activity against human HeLa cells assessed as growth inhibition after 72 hrs by MTT assay

CCRF-CEM = experiment: cells; settings: Homo sapiens, 72 h
Description: Antiproliferative activity against human CEM cells assessed as growth inhibition after 72 hrs by MTT assay

Homo sapiens [2] = organism: Homo sapiens; experiment: Binding affinity to human TeloC DNA assessed as stabilization of DNA by measuring change in melting temperature at 1 uM by FRET analysis
L1210 = experiment: cells; settings: Mus musculus, L1210, 72 h
Description: Antiproliferative activity against mouse L1210 cells assessed as growth inhibition after 72 hrs by MTT assay

Homo sapiens [3] = organism: Homo sapiens; experiment: Binding affinity to ILPR DNA (unknown origin) assessed as stabilization of DNA by measuring change in melting temperature at 1 uM by FRET analysis
Quadruplex DNA = experiment: Binding affinity to human G-quadruplex TeloG DNA assessed as stabilization of DNA by measuring change in melting temperature at 1 uM by FRET analysis; format: nucleic-acid assay
Homo sapiens [4] = organism: Homo sapiens; experiment: Binding affinity to cMYC DNA (unknown origin) assessed as stabilization of DNA by measuring change in melting temperature at 1 uM by FRET analysis
Homo sapiens [5] = organism: Homo sapiens; experiment: Binding affinity to HIF1A DNA (unknown origin) assessed as stabilization of DNA by measuring change in melting temperature at 1 uM by FRET analysis
[6] = Binding affinity to NASG DNA (unknown origin) assessed as stabilization of DNA by measuring change in melting temperature at 1 uM by FRET analysis
HMEC-1 = experiment: Cytotoxicity against human HMEC-1 cells assessed as growth inhibition after 72 hrs by MTT assay; format: cell-based; settings: HMEC-1, 72 h

SMILES | Activity (Homo sapiens [1]) | ΔTm (DNA) [°C] | IC50 (HeLa) [nM] | IC50 (CCRF-CEM) [nM] | Activity (Homo sapiens [2]) | IC50 (L1210) [nM] | ΔTm (Homo sapiens [3]) [°C] | ΔTm (Quadruplex DNA) [°C] | ΔTm (Homo sapiens [4]) [°C] | ΔTm (Homo sapiens [5]) [°C] | ΔTm [6] [°C] | IC50 (HMEC-1) [nM]
COc1cc2c3c4c(c(NCCN)cc(C)c14)C(=O)c1c(O)cc(O)c(c1-3)C(=O)C2(C)C | inactive | 6 | 800 | 800 | inactive | 800 | 17 | 5 | 25 | 10 | 4 | 700
COc1cccc2c1C(=O)c1c(O)c3c(c(O)c1C2=O)C[C@@](O)(C(=O)CO)C[C@@H]3O[C@H]1C[C@H](N)[C@H](O)[C@H](C)O1 [DOXORUBICIN] |  |  |  |  |  |  |  |  |  |  |  | 100
Cc1cc(NCCN)c2c3c4c(cc(O)c13)C(C)(C)C(=O)c1c(O)cc(O)c(c1-4)C2=O |  |  | 1600 | 2100 |  | 200 |  |  |  |  |  | 1200

Source: ChEMBL document CHEMBL4825679, “Water-Soluble Heliomycin Derivatives to Target i-Motif DNA” (J Nat Prod, 2021)
